Source: patent publication US12391737B2, “Soluble NPY2 receptor agonists” (Boehringer Ingelheim International GmbH, priority 2020, dated 2025)

Key:
[1] = target: T1, Human Neuropeptide Y2 Receptor (Homo sapiens, UniProt P49146); experiment: Radioligand binding competition assay (RLB); conditions: Table 3, 125I-PYY(1-36) competition; read-out: Ki
T1 construct: purchased CHEMICON HTS066M
T1 sequence (P49146 1-381): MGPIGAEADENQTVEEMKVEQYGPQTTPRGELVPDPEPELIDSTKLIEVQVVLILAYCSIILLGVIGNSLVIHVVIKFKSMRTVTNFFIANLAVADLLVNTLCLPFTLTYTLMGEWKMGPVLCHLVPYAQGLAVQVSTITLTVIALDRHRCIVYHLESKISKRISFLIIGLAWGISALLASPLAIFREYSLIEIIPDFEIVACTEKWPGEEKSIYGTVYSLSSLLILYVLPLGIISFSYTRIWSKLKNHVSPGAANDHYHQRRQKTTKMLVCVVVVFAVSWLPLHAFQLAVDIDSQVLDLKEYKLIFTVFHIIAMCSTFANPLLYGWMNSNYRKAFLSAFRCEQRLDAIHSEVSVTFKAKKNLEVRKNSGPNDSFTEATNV
In short: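 Competition binding used membranes expressing the receptor (0.5 μg protein/well) in 50 mM HEPES, 5 mM MgCl2, 1 mM CaCl2, pH 7.4 with 0.2% ovalbumin, incubated 2 h at room temperature with shaking. Bound radioligand was collected by filtration onto PEI-soaked GF/C filters and counted; IC50 from nonlinear sigmoidal fits.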

Solubility determination = conditions: for Sol6: pH 6; for Sol7: pH 7
In short: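 First, TFA-salt peptide was added to 0.1 M sodium diphosphate (pH 6.4 or 7.0) to 10 mg/ml and shaken 2 h at room temperature. Next, insoluble material was filtered off. Finally, filtrate and control, each 1 mg/ml in 50% acetonitrile, were compared by reversed-phase chromatography.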

| Ki [1] [nM] | Sol6 (Solubility determination) [mg/mL] | Sol7 (Solubility determination) [mg/mL] | Compound |
| --- | --- | --- | --- |
| 2.83 | 10.0 | 10.0 | CC(C)CC(=O)N[C@@H](C)C(=O)N1CCC[C@H]1C(=O)N[C@@H](CCC(=O)O)C(=O)N[C@@H](CCCCNC(=O)CCCCCNC(=O)CC[C@H](NC(=O)CCCCCCCCCCCCCCCCC(=O)O)C(=O)O)C(=O)N1CCC[C@H]1C(=O)N[C@@H](CCC(=O)O)C(=O)N[C@@H](C)C(=O)N[C@@H](CC(=O)O)C(=O)N[C@@H](C)C(=O)N[C@@H](CO)C(=O)N1CCC[C@H]1C(=O)N[C@@H](CCC(=O)O)C(=O)N[C@@H](CCC(=O)O)C(=O)N[C@@H](CC(C)C)C(=O)N[C@@H](CCC(N)=O)C(=O)N[C@@H](CCCNC(=N)N)C(=O)N[C@@H](Cc1ccc(O)cc1)C(=O)N[C@@H](Cc1ccc(O)cc1)C(=O)N[C@H](C(=O)N[C@@H](CCC(=O)O)C(=O)N[C@@H](CC(C)C)C(=O)N[C@@H](CCCNC(=N)N)C(=O)N[C@@H](Cc1c[nH]cn1)C(=O)N[C@@H](Cc1ccc(O)cc1)C(=O)N[C@@H](Cc1ccc(O)cc1)C(=O)N[C@@H](CC(N)=O)C(=O)N[C@@H](Cc1c[nH]c2ccccc12)C(=O)N[C@@H](CC(C)C)C(=O)N[C@H](C(=O)N[C@@H](CCCNC(=N)N)C(=O)N[C@@H](CCC(N)=O)C(=O)N[C@@H](CCCNC(=N)N)C(=O)N[C@@H](Cc1ccc(O)cc1)C(N)=O)[C@@H](C)O)C(C)C [Compound 171, N{alpha-4}-(3-methylbutanoyl)-N{epsilon-7}-(6-[(4S)-4-carboxy-4-(17-carboxyheptadecanamido)butanamido]hexanoyl)-[4A,7K,9E,10A,18Q,22V,23E,28Y,30W,31L]-hPYY(4-36)] |
| 7.15 | 10.0 | 9.7 | CC(C)CC(=O)N[C@@H](C)C(=O)N1CCC[C@H]1C(=O)N[C@@H](CCC(=O)O)C(=O)N[C@@H](CCCCNC(=O)CCCCCNC(=O)CC[C@H](NC(=O)CCCCCCCCCCCCCCCCC(=O)O)C(=O)O)C(=O)N1CCC[C@H]1C(=O)N[C@@H](CCC(=O)O)C(=O)N[C@@H](CCC(=O)O)C(=O)N[C@@H](CC(=O)O)C(=O)N[C@@H](C)C(=O)N[C@H](C(=O)N[C@@H](CC(C)C)C(=O)N[C@@H](CCC(=O)O)C(=O)N[C@@H](CCC(=O)O)C(=O)N[C@@H](CC(C)C)C(=O)N[C@@H](CCC(N)=O)C(=O)N[C@@H](CCCNC(=N)N)C(=O)N[C@@H](Cc1ccc(O)cc1)C(=O)N[C@@H](Cc1ccc(O)cc1)C(=O)N[C@H](C(=O)N[C@@H](CO)C(=O)N[C@@H](CC(C)C)C(=O)N[C@@H](CCCNC(=N)N)C(=O)N[C@@H](Cc1c[nH]cn1)C(=O)N[C@@H](Cc1ccc(O)cc1)C(=O)N[C@@H](Cc1ccc(O)cc1)C(=O)N[C@@H](CC(N)=O)C(=O)N[C@@H](Cc1c[nH]c2ccccc12)C(=O)N[C@@H](CC(C)C)C(=O)N[C@H](C(=O)N[C@@H](CCCNC(=N)N)C(=O)N[C@@H](CCC(N)=O)C(=O)N[C@@H](CCCNC(=N)N)C(=O)N[C@@H](Cc1ccc(O)cc1)C(N)=O)[C@@H](C)O)C(C)C)[C@@H](C)O [Compound 102, N{alpha-4}-(3-methylbutanoyl)-N{epsilon-7}-(6-[(4S)-4-carboxy-4-(17-carboxyheptadecanamido)butanamido]hexanoyl)-[4A,7K,9E,13T,14L,18Q,22V,28Y,30W,31L]-hPYY(4-36)] |
